The source of these data is patent publication US20100158980A1, “DRUG DELIVERY DEVICES FOR DELIVERY OF THERAPEUTIC AGENTS” (priority 2008, published 2010).

A word on the solubility: it is how much of the substance goes into solution per volume. High values mean a readily soluble substance, low ones a poorly soluble substance.

Converted amounts (≈) assume the structure as drawn. Where a name gives a salt, the structure may show the parent alone.

The nature of the series: physchem. From the text:
The active agent may be any active agent suitable to treat the desired condition. […] Examples include, but are not limited to, acetazolamide, dorzolamide HCl, timolol maleate, and ethacrynic acid sodium salt.

`O=C(O)CCCCCC[C@@H]1[C@@H](CC[C@@H](O)c2cc3ccccc3s2)[C@H](O)C[C@@H]1O` [AR-102 free acid, 7-((1R,2R,3R,5S)-2-((R)-3-(benzo[b]thiophen-2-yl)-3-hydroxypropyl)-3,5-dihydroxycyclopentyl)heptanoic acid]: the solubility class entry was “moderate solubility”.

In the case of `CC(=O)Nc1nnc(S(N)(=O)=O)s1` [acetazolamide], the solubility (aqueous buffer) is over 1000 µg/mL. With `CCNC(=O)CCC/C=C\C[C@@H]1[C@@H](/C=C/[C@@H](O)CCc2ccccc2)[C@H](O)C[C@@H]1O` [bimatoprost], the solubility class entry was “low solubility”. The compound `Brc1c(NC2=NCCN2)ccc2nccnc12` [brimonidine free base] showed a solubility of 360 µg/mL (≈ 1230 µM).

As to `C[C@@H]1C[C@H]2[C@@H]3CCC4=CC(=O)C=C[C@]4(C)[C@@]3(F)[C@@H](O)C[C@]2(C)[C@@]1(O)C(=O)COP(=O)(O)O` [dexamethasone sodium phosphate], the solubility class result was “high solubility”. As to `C[C@@H]1C[C@H]2[C@@H]3CCC4=CC(=O)C=C[C@]4(C)[C@@]3(F)[C@@H](O)C[C@]2(C)[C@@]1(O)C(=O)CO` [dexamethasone], the solubility class entry was “low solubility”. For the setting “aqueous buffer”, this compound displayed a solubility of under 300 µg/mL. On the same counts, the results for `CCN[C@H]1C[C@H](C)S(=O)(=O)c2sc(S(N)(=O)=O)cc21` [dorzolamide HCl] are “high solubility” and over 1000 µg/mL. On the same counts, the results for `C=C(CC)C(=O)c1ccc(OCC(=O)O)c(Cl)c1Cl` [ethacrynic acid sodium salt] are “high solubility” and over 1000 µg/mL. Compound `O=C(O)CCC/C=C\C[C@@H]1[C@@H](CC[C@@H](O)CCc2ccccc2)[C@H](O)C[C@@H]1O` [latanoprost free acid] showed a solubility of 800 µg/mL (≈ 2050 µM). `CC[C@H](C)C(=O)O[C@H]1C[C@@H](C)C=C2C=C[C@H](C)[C@H](CC[C@@H]3C[C@@H](O)CC(=O)O3)[C@H]21` [lovastatin] came in with a solubility (aqueous buffer) of under 300 µg/mL. As for `CC(C)(C)NC[C@H](O)COc1nsnc1N1CCOCC1` [timolol maleate], the solubility class entry is recorded as “high solubility”. The compound also displayed a solubility (aqueous buffer) of over 1000 µg/mL. As to brimonidine tartrate, the solubility (in water at pH 7.7) was determined as 600 µg/mL.
